Assay results: ChEMBL document CHEMBL3407468, “Novel 5-substituted pyrrolo[2,3-d]pyrimidines as dual inhibitors of glycinamide ribonucleotide formyltransferase and 5-aminoimidazole-4-carboxamide ribonucleotide formyltransferase and as potential antitumor agents” (J Med Chem, 2015)
Active and inactive are the calls of the source. The calls are words filed in the database; no cut-off is given here.

Tests used:
[1] = Cytotoxicity against PCFT-deficient Chinese hamster R2(VC) cells assessed as growth inhibition after 96 hrs by CellTiter-Blue assay; type: cell-based; settings: Cricetulus griseus
[2] = tested on: R2; assay: Cytotoxicity against RFC-deficient Chinese hamster R2 cells assessed as growth inhibition after 96 hrs by CellTiter-Blue assay; type: cell-based; settings: Cricetulus griseus, R2, 96 h
[3] = target: Bifunctional purine biosynthesis protein ATIC (Homo sapiens) (UniProt P31939); assay: Inhibition of AICARFTase in human KB cells expressing RFC/FRalpha/PCFT assessed as cell growth inhibition at 1 to 1000 nM after 96 hrs by CellTiter-Blue assay in presence of 320 uM AICA; type: cell-based
Chain of Bifunctional purine biosynthesis protein ATIC (Homo sapiens) (P31939 whole entry, looked up): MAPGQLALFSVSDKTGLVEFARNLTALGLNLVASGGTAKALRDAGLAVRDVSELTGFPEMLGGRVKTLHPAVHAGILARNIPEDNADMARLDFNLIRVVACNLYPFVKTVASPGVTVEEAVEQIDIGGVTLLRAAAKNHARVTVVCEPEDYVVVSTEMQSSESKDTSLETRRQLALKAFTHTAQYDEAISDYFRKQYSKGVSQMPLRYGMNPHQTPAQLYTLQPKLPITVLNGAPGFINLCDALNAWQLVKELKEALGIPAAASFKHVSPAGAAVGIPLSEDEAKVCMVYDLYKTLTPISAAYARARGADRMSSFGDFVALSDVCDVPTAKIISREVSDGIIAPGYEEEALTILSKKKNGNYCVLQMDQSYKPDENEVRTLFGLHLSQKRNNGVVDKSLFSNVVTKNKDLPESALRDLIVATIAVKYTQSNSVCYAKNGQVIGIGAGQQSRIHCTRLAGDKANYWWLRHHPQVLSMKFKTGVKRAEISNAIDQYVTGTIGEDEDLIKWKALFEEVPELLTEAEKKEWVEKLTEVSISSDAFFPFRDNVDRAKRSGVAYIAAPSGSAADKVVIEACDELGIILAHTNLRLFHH

[4] = target: T1, Trifunctional purine biosynthetic protein adenosine-3 (Homo sapiens, UniProt P22102); assay: Inhibition of GARFTase in human KB cells expressing RFC/FRalpha/PCFT assessed as incorporation of [U-14C]-glycine into [14C]-formyl glycinamide ribonucleotide incubated for 1 hr followed by [U-14C]-glycine addition measured after 16 hrs; type: cell-based
T1 sequence (P22102 whole entry): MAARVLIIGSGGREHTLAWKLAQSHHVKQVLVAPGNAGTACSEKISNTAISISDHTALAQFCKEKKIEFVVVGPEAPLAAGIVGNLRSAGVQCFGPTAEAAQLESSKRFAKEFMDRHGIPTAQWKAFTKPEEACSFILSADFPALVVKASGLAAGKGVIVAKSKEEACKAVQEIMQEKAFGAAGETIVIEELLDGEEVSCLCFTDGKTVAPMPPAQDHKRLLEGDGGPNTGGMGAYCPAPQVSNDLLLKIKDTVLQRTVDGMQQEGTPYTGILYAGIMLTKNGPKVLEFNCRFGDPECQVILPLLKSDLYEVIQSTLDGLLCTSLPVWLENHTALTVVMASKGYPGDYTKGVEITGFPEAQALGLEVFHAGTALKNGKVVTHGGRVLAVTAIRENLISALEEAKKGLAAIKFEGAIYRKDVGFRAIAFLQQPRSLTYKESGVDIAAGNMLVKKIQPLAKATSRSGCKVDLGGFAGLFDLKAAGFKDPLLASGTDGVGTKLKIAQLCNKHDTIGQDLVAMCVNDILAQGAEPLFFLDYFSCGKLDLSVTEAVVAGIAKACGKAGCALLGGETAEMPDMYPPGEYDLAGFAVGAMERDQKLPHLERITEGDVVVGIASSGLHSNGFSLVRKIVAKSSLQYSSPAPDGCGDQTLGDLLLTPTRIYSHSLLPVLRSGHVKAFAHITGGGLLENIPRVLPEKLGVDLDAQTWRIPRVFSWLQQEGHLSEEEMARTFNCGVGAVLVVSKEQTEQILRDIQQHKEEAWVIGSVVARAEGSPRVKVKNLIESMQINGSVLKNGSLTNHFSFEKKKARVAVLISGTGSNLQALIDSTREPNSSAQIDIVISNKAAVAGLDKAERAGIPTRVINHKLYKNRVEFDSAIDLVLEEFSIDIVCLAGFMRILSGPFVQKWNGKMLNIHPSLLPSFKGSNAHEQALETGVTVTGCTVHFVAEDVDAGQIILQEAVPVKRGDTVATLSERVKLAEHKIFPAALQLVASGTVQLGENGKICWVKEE

[5] = tested on: KB; assay: Antiproliferative activity against human KB cells expressing RFC/FRalpha/PCFT after 96 hrs by CellTiter-Blue assay; type: functional, cell-based
[6] = target: T2, GAR transformylase/AICAR transformylase (Homo sapiens) (UniProt P31939+P22102); settings: KB, at 1 to 1000 nM
T2 sequence (P31939 whole entry, looked up, one chain of several): as the sequence (P31939 whole entry, looked up) above
Description: Inhibition of GARFTase/AICARFTase in human KB cells expressing RFC/FRalpha/PCFT assessed as cell growth inhibition at 1 to 1000 nM after 96 hrs by CellTiter-Blue assay in presence of 10 uM thymidine

[7] = target: T2, GAR transformylase/AICAR transformylase (Homo sapiens); settings: KB, at 1 to 1000 nM; remark: listed apart in the source
Description: Inhibition of GARFTase/AICARFTase in human KB cells expressing RFC/FRalpha/PCFT assessed as cell growth inhibition at 1 to 1000 nM after 96 hrs by CellTiter-Blue assay in presence of 60 uM adenosine

[8] = tested on: KB; assay: Antiproliferative activity against human KB cells expressing RFC/FRalpha/PCFT after 96 hrs by CellTiter-Blue assay in presence of 200 nM folic acid; type: functional, cell-based

SMILES	inhibition [3]	IC50 [5] [nM]	inhibition [6]	inhibition [7]	IC50 [1] [nM]	IC50 [2] [nM]	IC50 [4] [nM]	Activity [8]
Nc1nc2[nH]c(CCCCc3ccc(C(=O)N[C@@H](CCC(=O)O)C(=O)O)s3)cc2c(=O)[nH]1	inactive	–	–	–	> 1000	> 1000	3.13	–
Nc1nc2[nH]cc(CCCCCCc3ccc(C(=O)N[C@@H](CCC(=O)O)C(=O)O)s3)c2c(=O)[nH]1	–	> 1000	–	–	> 1000	> 1000	–	–
Nc1nc2[nH]cc(Cc3ccc(C(=O)N[C@@H](CCC(=O)O)C(=O)O)s3)c2c(=O)[nH]1	–	> 1000	–	–	> 1000	> 1000	–	–

Second part, led by results:

inhibition [3]	IC50 [5] [nM]	inhibition [6]	inhibition [7]	SMILES	IC50 [1] [nM]	IC50 [2] [nM]	IC50 [4] [nM]	Activity [8]
–	875	–	–	Nc1nc2[nH]cc(CCc3ccc(C(=O)N[C@@H](CCC(=O)O)C(=O)O)s3)c2c(=O)[nH]1	> 1000	> 1000	–	–
Active	211	Active	inactive	Nc1nc2[nH]cc(CCCc3ccc(C(=O)N[C@@H](CCC(=O)O)C(=O)O)s3)c2c(=O)[nH]1	> 1000	> 1000	–	–
inactive	41.7	Active	inactive	Nc1nc2[nH]cc(CCCCCc3ccc(C(=O)N[C@@H](CCC(=O)O)C(=O)O)s3)c2c(=O)[nH]1	> 1000	> 1000	–	inactive
Active	66	Active	inactive	Nc1nc2[nH]cc(CCCCc3ccc(C(=O)N[C@@H](CCC(=O)O)C(=O)O)s3)c2c(=O)[nH]1	> 1000	> 1000	61	inactive
